From ChEMBL document CHEMBL5046315, “CRCM5484: A BET-BDII Selective Compound with Differential Anti-leukemic Drug Modulation” (J Med Chem, 2022)
Calls of active or inactive are those of the source. The calls are words filed in the database; no cut-off is given here.

What was measured:
U-937 [1] = experiment: Potentiation of palbociclib-induced antileukemic activity against human U-937 cells at 4.3 uM in presence of bone-marrow derived stromal cell-conditioned medium; format: functional, cell-based
U-937 [2] = experiment: Potentiation of AraC-induced antileukemic activity against human U-937 cells at 4.3 uM in presence of bone-marrow derived stromal cell-conditioned medium; format: functional, cell-based
U-937 [3] = experiment: Potentiation of venetoclax-induced antileukemic activity against human U-937 cells at 4.3 uM in presence of bone-marrow derived stromal cell-conditioned medium; format: functional, cell-based
CCRF-CEM [4] = experiment: Potentiation of venetoclax-induced antileukemic activity against human CCRF-CEM cells at 4.3 uM in presence of bone-marrow derived stromal cell-conditioned medium; format: functional, cell-based
MOLM-14 [5] = experiment: Potentiation of ponatinib-induced antileukemic activity against human MOLM-14 cells at 4.3 uM in presence of bone-marrow derived stromal cell-conditioned medium; format: functional, cell-based
CCRF-CEM [6] = experiment: Potentiation of niotinib-induced antileukemic activity against human CCRF-CEM cells at 4.3 uM in presence of bone-marrow derived stromal cell-conditioned medium; format: functional, cell-based
U-937 [7] = experiment: Potentiation of tretinoin-induced antileukemic activity against human U-937 cells at 4.3 uM in presence of bone-marrow derived stromal cell-conditioned medium; format: functional, cell-based
[8] = target: T1, Bromodomain-containing protein 3 (Homo sapiens, UniProt Q15059); experiment: Inhibition of human partial length BRD3-BD2 (G306 to P416 residues) expressed in bacterial system at 1 uM by BROMOscan method relative to control
Target sequence in this assay (Q15059 2-726 limits assumed): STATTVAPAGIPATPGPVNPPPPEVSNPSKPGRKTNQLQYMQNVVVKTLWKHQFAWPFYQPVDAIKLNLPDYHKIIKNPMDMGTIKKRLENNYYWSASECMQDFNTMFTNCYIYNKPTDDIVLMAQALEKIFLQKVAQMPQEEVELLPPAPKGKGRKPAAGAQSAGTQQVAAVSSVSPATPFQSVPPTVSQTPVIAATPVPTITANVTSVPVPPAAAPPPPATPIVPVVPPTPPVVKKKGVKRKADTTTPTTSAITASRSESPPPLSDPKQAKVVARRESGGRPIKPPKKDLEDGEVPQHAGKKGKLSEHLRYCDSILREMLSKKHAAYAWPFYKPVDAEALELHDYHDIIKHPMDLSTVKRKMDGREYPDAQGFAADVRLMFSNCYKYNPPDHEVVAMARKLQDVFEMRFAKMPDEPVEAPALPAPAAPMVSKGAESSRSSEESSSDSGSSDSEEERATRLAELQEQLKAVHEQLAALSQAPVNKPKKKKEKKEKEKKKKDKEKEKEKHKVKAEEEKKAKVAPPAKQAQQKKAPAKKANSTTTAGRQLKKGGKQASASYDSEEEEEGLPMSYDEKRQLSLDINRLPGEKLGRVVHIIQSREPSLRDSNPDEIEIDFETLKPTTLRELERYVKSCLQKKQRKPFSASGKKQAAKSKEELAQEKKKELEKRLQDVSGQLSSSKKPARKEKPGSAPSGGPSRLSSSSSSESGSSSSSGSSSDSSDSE

CCRF-CEM [9] = experiment: Potentiation of entinostat-induced antileukemic activity against human CCRF-CEM cells at 4.3 uM in presence of bone-marrow derived stromal cell-conditioned medium; format: functional, cell-based
CCRF-CEM [10] = experiment: Potentiation of dasatinib-induced antileukemic activity against human CCRF-CEM cells at 4.3 uM in presence of bone-marrow derived stromal cell-conditioned medium; format: functional, cell-based
MOLM-14 [11] = experiment: Potentiation of gileritinib-induced antileukemic activity against human MOLM-14 cells at 4.3 uM in presence of bone-marrow derived stromal cell-conditioned medium; format: functional, cell-based
MOLM-14 [12] = experiment: Potentiation of vorinostat-induced antileukemic activity against human MOLM-14 cells at 4.3 uM in presence of bone-marrow derived stromal cell-conditioned medium; format: functional, cell-based
CCRF-CEM [13] = experiment: Potentiation of AGI-5198-induced antileukemic activity against human CCRF-CEM cells at 4.3 uM in presence of bone-marrow derived stromal cell-conditioned medium; format: functional, cell-based
MOLM-14 [14] = experiment: Potentiation of erlotinib-induced antileukemic activity against human MOLM-14 cells at 4.3 uM in presence of bone-marrow derived stromal cell-conditioned medium; format: functional, cell-based
U-937 [15] = experiment: Potentiation of midostaurin-induced antileukemic activity against human U-937 cells at 4.3 uM in presence of bone-marrow derived stromal cell-conditioned medium; format: functional, cell-based
MOLM-14 [16] = experiment: Potentiation of SGI-110-induced antileukemic activity against human MOLM-14 cells at 4.3 uM in presence of bone-marrow derived stromal cell-conditioned medium; format: functional, cell-based
[17] = target: T1, Bromodomain-containing protein 3; experiment: Inhibition of BRD3-BD2 (unknown origin) assessed as dissociation constant by ITC method
Target sequence in this assay (Q15059 whole entry, the tested form may be a part): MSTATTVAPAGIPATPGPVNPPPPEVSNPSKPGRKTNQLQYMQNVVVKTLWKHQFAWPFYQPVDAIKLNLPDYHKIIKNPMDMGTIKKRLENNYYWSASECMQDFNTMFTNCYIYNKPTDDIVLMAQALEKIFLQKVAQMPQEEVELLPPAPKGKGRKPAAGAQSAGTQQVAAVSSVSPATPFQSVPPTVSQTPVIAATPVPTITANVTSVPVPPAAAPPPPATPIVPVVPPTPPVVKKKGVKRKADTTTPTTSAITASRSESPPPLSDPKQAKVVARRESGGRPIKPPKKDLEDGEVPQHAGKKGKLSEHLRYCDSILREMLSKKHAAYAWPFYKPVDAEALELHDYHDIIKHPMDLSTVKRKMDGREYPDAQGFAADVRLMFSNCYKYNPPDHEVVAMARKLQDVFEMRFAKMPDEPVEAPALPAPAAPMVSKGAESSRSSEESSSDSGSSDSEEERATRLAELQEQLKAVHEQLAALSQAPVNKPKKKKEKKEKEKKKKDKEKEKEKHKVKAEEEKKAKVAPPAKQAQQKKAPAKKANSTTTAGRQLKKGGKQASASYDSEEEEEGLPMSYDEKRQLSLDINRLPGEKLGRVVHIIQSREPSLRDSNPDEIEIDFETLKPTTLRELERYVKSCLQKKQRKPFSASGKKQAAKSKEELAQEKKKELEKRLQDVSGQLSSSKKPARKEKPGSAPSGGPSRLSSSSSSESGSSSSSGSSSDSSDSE

MOLM-14 [18] = experiment: Potentiation of afatinib-induced antileukemic activity against human MOLM-14 cells at 4.3 uM in presence of bone-marrow derived stromal cell-conditioned medium; format: functional, cell-based
CCRF-CEM [19] = experiment: Potentiation of sorafenib-induced antileukemic activity against human CCRF-CEM cells at 4.3 uM in presence of bone-marrow derived stromal cell-conditioned medium; format: functional, cell-based
MOLM-14 [20] = experiment: Potentiation of venetoclax-induced antileukemic activity against human MOLM-14 cells at 4.3 uM in presence of bone-marrow derived stromal cell-conditioned medium; format: functional, cell-based
U-937 [21] = experiment: Potentiation of lapatinib-induced antileukemic activity against human U-937 cells at 4.3 uM in presence of bone-marrow derived stromal cell-conditioned medium; format: functional, cell-based
MOLM-14 [22] = experiment: Potentiation of bortezomib-induced antileukemic activity against human MOLM-14 cells at 4.3 uM in presence of bone-marrow derived stromal cell-conditioned medium; format: functional, cell-based
U-937 [23] = experiment: Potentiation of dexamethasone-induced antileukemic activity against human U-937 cells at 4.3 uM in presence of bone-marrow derived stromal cell-conditioned medium; format: functional, cell-based
CCRF-CEM [24] = experiment: Potentiation of dexamethasone-induced antileukemic activity against human CCRF-CEM cells at 4.3 uM in presence of bone-marrow derived stromal cell-conditioned medium; format: functional, cell-based
MOLM-14 [25] = experiment: Potentiation of dexamethasone-induced antileukemic activity against human MOLM-14 cells at 4.3 uM in presence of bone-marrow derived stromal cell-conditioned medium; format: functional, cell-based

For `CC(=O)N1CCc2c(sc3nc(SCC(=O)Nc4cccnc4C)n(Cc4ccco4)c(=O)c23)C1`, the Activity (U-937 [1]) was “inactive”, the Activity (U-937 [2]) was “inactive” and the Activity (U-937 [3]) was “inactive”. For the same compound, the Activity (CCRF-CEM [4]) was “inactive”, the Activity (MOLM-14 [5]) was “inactive” and the Activity (CCRF-CEM [6]) was “inactive”. The Activity (U-937 [7]) was “inactive”, the inhibition [8] was 36% and the Activity (CCRF-CEM [9]) was “inactive”. The Activity (CCRF-CEM [10]) was “inactive”, the Activity (MOLM-14 [11]) was “inactive” and the Activity (MOLM-14 [12]) was “inactive”. The Activity (CCRF-CEM [13]) was “inactive”, the Activity (MOLM-14 [14]) was “inactive” and the Activity (U-937 [15]) was “inactive”. For the same compound, the Activity (MOLM-14 [16]) was “inactive”, the Kd [17] was 150 nM and the Activity (MOLM-14 [18]) was “inactive”. The Activity (CCRF-CEM [19]) was “inactive”, the Activity (MOLM-14 [20]) was “inactive” and the Activity (U-937 [21]) was “inactive”. For the same compound, the Activity (MOLM-14 [22]) was “inactive”, the Activity (U-937 [23]) was “inactive” and the Activity (CCRF-CEM [24]) was “inactive”. The Activity (MOLM-14 [25]) was “inactive”.
